Source: US20040127363A1, “Pesticidal compositions containing silicon compounds” (priority 2000, published 2004)

Test system: mites and insects
Assay: Pesticidal activity in a variety of application forms
Format: in vivo
Settings: diluted aqueous solutions, emulsions with surfactant, or without any solvent
Procedure: The pesticidal activity was found both in diluted aqueous solutions and in emulsions together with suitable ionic, amphoteric or non-ionic surfactant, or without any solvent.
The pesticidal activity of the silicon esters of the present invention was tested against mites and insects.

In the case of CCCCO[Si](OCCCC)(OCCCC)OCCCC [tetrabutyl ortho silicate], the pesticidal activity is reported as “high pesticidal activity”.
